Source: US6307056A, “4-aryloxindoles” (Hoffman-La Roche Inc., priority 1999, dated 2001)
Where a name gives a salt, the structure may show the parent alone.

Test system: TNF-α
Assay: U937 Cell-Based Assay, TNF-α ELISA after LPS stimulation
Settings: Homo sapiens, U-937, read-out: IC50 in U837 Cells TNF, PMA-differentiated U937 cells, 1 hour preincubation, 24 hours, supernatant ELISA
Experimental: (§1) U937 Cell-Based Assay The U937 cells, a human monocyte/macrophage cell line, was obtained from the ATTC and grown in the recommended medium. These cells when stimulated with lipopolysaccharide (LPS) release TNF, another inflammatory mediator implicated in the JNK pathway ([…] et al., supra) and IL-6. In this assay the ability of a test compound to block TNF expression is evaluated. The U937 cells were suspension cells which when stimulated with phorbol myristate acetate (PMA) (Sigma, St. Louis, Mo.) became adherent. After PMA stimulation the cells were washed in cell culture medium and plated at 1×10^5 cells/well in 96 well plates. The following day the test compounds and dexamethasone control (Sigma, St. Louis, Mo.) were added to the cells for 1 hour of preincubation. Then the cells were stimulated with LPS (Sigma, St. Louis, Mo.). After an additional 24 hours of incubation the supernatants were removed and assayed for TNF-α and IL-6 by ELISA. The IL-6 ELISA was run as described previously for the MG63 assay. […] The intensity of the color (measured at 450 nm) is proportional to the amount of TNF-α or IL-6 produced by the U937 cells upon exposure to LPS and the test compounds. […] IC50 values for each test compound were determined from the linear regression of a plot of the logarithm of the concentration of compound versus amount of TNF-α or IL-6 secreted. […]

Row | IC50 [pM] | SMILES
1 | 1.17e+06 | Nc1cccc(-c2cccc3c2/C(=C/c2ccc[nH]2)C(=O)N3)c1 [D, (Z)-4-(3-Aminophenyl)-1,3-dihydro-3-[(1H-pyrrol-2-yl)methylene]-2H-indol-2-one hydrochloride salt]
2 | 1.35e+06 | COC(=O)c1ccc(-c2c(NC(=O)Cc3cccs3)ccc3c2/C(=C/c2[nH]ccc2OC)C(=O)N3)cc1 [WW, (Z)-4-[2,3-Dihydro-3-[(3-methoxy-1H-pyrrol-2-yl)methylene]-2-oxo-5-[(2-thienylacetyl)amino]-1H-indol-4-yl]-benzoic Acid Methyl Ester]

Test system: IL-6
Assay: U937 Cell-Based Assay, IL-6 ELISA after LPS stimulation
Settings: Homo sapiens, U-937, PMA-differentiated U937 cells, 1 hour preincubation, 24 hours, supernatant ELISA, read-out: IC50 (pM) in U837 Cells IL6
Experimental: as §1

Row | IC50 [pM] | SMILES
3 | 6.33e+06 | Nc1cccc(-c2cccc3c2/C(=C/c2ccc[nH]2)C(=O)N3)c1 [D, (Z)-4-(3-Aminophenyl)-1,3-dihydro-3-[(1H-pyrrol-2-yl)methylene]-2H-indol-2-one hydrochloride salt]
4 | 7.8e+06 | COC(=O)c1ccc(-c2c(NC(=O)Cc3cccs3)ccc3c2/C(=C/c2[nH]ccc2OC)C(=O)N3)cc1 [WW, (Z)-4-[2,3-Dihydro-3-[(3-methoxy-1H-pyrrol-2-yl)methylene]-2-oxo-5-[(2-thienylacetyl)amino]-1H-indol-4-yl]-benzoic Acid Methyl Ester]

Molecular target: rat SAPK (isoform b) (Rattus norvegicus, UniProt P49187)
Assay: SAPK FlashPlate Assay (c-Jun phosphorylation)
Type: biochemical
Settings: purified rat SAPK activated by MEKK-1/MKK4, GST-c-Jun substrate, 33P-ATP, 30 minutes at 37° C.
Experimental: "IC50 " refers to the concentration of a particular 4-aryloxindole or 4-heteroaryloxidole required to inhibit 50% of the SAPK protein kinase catalytic activity. IC50 can be measured, inter alia, using the assay described herein in Example 66.
Human JNK is highly homologous to rat SAPK. To measure the inhibitory activity of test compounds, the compounds were tested in the rat SAPK assay.
For the SAPK assay, purified GST-c-Jun (a chimeric protein containing c-Jun, a natural substrate of JNK) was coated on 96 well FlashPlates (New England Nuclear, Boston, Mass.). Purified rat SAPK (isoform b, Kyriakis et al. supra) was preincubated with preparations containing MEKK-1 and MKK4 for 30 minutes at 37° C. in assay buffer containing 25 mM HEPES, pH 7.5, 150 mM NaCl, 20 mM MgCl2, 2 mM DTT, 0.001% Tween 20, 1 mM ATP freshly added. In the preincubation step, MEKK-1 phosphorylates and activates MKK4, which in turn phosphorylates and activates SAPK. The activated SAPK was then added to the c-Jun coated FlashPlates along with ^33 P-ATP ([…] per reaction) and test compounds. The plates were incubated for 30 minutes at 37° C., then washed with PBS, 0.01% Tween 20, and counted in the Topcount scintillation counter (Packard Instrument Co., Downers Grove, Ill.). Dilutions of compounds were tested in duplicate in each assay. The percent inhibition of c-Jun phosphorylation (a measure of inhibition of SAPK activity) was determined by the following formula: [formula]
where "test compound" refers to the average counts per minute of the test duplicates, "nonspecific" refers to the average counts per minute when no SAPK was added, and "total" refers to the average counts per minute when no compound was added.

Sequence of rat SAPK (isoform b) (P49187 whole entry, canonical isoform): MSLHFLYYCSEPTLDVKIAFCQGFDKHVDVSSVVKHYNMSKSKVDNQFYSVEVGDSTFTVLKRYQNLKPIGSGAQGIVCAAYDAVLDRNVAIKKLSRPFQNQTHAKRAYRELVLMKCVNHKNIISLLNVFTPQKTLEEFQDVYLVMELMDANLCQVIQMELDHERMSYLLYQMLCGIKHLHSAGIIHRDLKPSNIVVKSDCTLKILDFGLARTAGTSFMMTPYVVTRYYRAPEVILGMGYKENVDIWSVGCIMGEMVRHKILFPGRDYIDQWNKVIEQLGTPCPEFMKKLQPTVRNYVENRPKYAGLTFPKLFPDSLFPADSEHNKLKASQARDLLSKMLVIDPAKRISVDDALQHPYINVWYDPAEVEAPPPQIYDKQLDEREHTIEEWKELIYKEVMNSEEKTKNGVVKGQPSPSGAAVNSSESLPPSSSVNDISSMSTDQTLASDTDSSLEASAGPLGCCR

Row | IC50 [µM] | SMILES
5 | < 0.15 | Nc1cccc(-c2cccc3c2/C(=C/c2ccc[nH]2)C(=O)N3)c1 [Compound C, (Z)-4-(3-Aminophenyl)-1,3-dihydro-3-[(1H-pyrrol-2-yl)methylene]-2H-indol-2-one]
6 | < 0.15 | COc1cc[nH]c1/C=C1\C(=O)Nc2cccc(-c3cccc(N)c3)c21 [EE, (Z)-4-(3-Aminophenyl)-1,3-dihydro-3-[(3-methoxy-1H-pyrrol-2-yl)methylene]-2H-indol-2-one]
7 | < 0.15 | COc1cc[nH]c1/C=C1\C(=O)Nc2cccc(-c3ccccc3)c21 [GG, (Z)-1,3-Dihydro-4-phenyl-3-[(3-methoxy-1H-pyrrol-2-yl)methylene]-2H-indol-2-one]
8 | < 0.15 | COc1cc[nH]c1/C=C1\C(=O)Nc2ccc([N+](=O)[O-])c(-c3ccc(O)cc3)c21 [JJ, (Z)-1,3-Dihydro-4-(4-hydroxyphenyl)-3-[(3-methoxy-1H-pyrrol-2-yl)methylene]-5-nitro-2H-indol-2-one]
9 | < 0.15 | COc1cc[nH]c1/C=C1\C(=O)Nc2ccc([N+](=O)[O-])c(-c3ccccc3)c21 [KK, (Z)-1,3-Dihydro-3-[(3-methoxy-1H-pyrrol-2-yl)methylene]-5-nitro-4-phenyl-2H-indol-2-one]
10 | < 0.15 | COc1cc[nH]c1/C=C1\C(=O)Nc2ccc(NC(=O)Cc3cccs3)c(-c3ccccc3)c21 [LL, (Z)-N-[2,3-Dihydro-3-[(3-methoxy-1H-pyrrol-2-yl)methylene]-2-oxo-4-phenyl-1H-indol-5-yl]-2-thiopheneacetamide]
11 | < 0.15 | COc1cc[nH]c1/C=C1\C(=O)Nc2cccc(-c3ccc4[nH]ccc4c3)c21 [MM, (Z)-1,3-Dihydro-4-(5-indolyl)-3-[(3-methoxy-1H-pyrrol-2-yl)methylene]-2H-indol-2-one]
12 | < 0.15 | COc1cc[nH]c1/C=C1\C(=O)Nc2ccc(N)c(-c3ccc(O)cc3)c21 [NN, (Z)-5-Amino-1,3-dihydro-4-(4-hydroxyphenyl)-3-[(3-methoxy-1H-pyrrol-2-yl)methylene]-2H-indol-2-one]
13 | < 0.15 | COc1cc[nH]c1/C=C1\C(=O)Nc2ccc(NC(=O)Cc3cccs3)c(-c3ccc(O)cc3)c21 [OO, (Z)-N-[2,3-Dihydro-4-(4-hydroxyphenyl)-3-[(3-methoxy-1H-pyrrol-2-yl)methylene]-2-oxo-1H-indol-5-yl]-2-thiopheneacetamide]
14 | < 0.15 | COc1cc[nH]c1/C=C1\C(=O)Nc2ccc(N)c(-c3ccccc3)c21 [PP, (Z)-5-Amino-1,3-dihydro-3-[(3-methoxy-1H-pyrrol-2-yl)methylene]-4-phenyl-2H-indol-2-one]
15 | < 0.15 | COc1cc[nH]c1/C=C1\C(=O)Nc2ccc(NC(=O)Cc3cccs3)c(-c3ccc4[nH]ccc4c3)c21 [QQ, (Z)-N-[2,3-dihydro-4-(5-indolyl)-3-[(3-methoxy-1H-pyrrol-2-yl)methylene]-2-oxo-1H-indol-5-yl]-2-thiopheneacetamide]
16 | < 0.15 | COC(=O)c1ccc(-c2c([N+](=O)[O-])ccc3c2/C(=C/c2[nH]ccc2OC)C(=O)N3)cc1 [RR, (Z)-4-[2,3-Dihydro-3-[(3-methoxy-1H-pyrrol-2-yl)methylene]-5-nitro-2oxo-1H-indol-4-yl]-benzoic acid methyl ester]
17 | < 0.15 | COC(=O)c1ccc(-c2c(N)ccc3c2/C(=C/c2[nH]ccc2OC)C(=O)N3)cc1 [SS, (Z)-4-[5-Amino-2,3-dihydro-3-[(3-methoxy-1H-pyrrol-2-yl)methylene]-2-oxo-1H-indol-4-yl]-benzoic acid methyl ester]
18 | < 0.15 | COc1cc[nH]c1/C=C1\C(=O)Nc2cccc(-c3cccc4[nH]ccc34)c21 [TT, (Z)-1,3-Dihydro-4-(4-indolyl)-3-[(3-methoxy-1H-pyrrol-2-yl)methylene]-2H-indol-2-one]
19 | < 0.15 | COc1cc[nH]c1/C=C1\C(=O)Nc2cccc(-c3ccc4cc[nH]c4c3)c21 [UU, (Z)-1,3-Dihydro-4-(6-indolyl)-3-[(3-methoxy-1H-pyrrol-2-yl)methylone]-2H-indol-2-one]
20 | < 0.15 | COc1cc[nH]c1/C=C1\C(=O)Nc2ccc(NC(=O)Cc3cccs3)c(-c3ccc4cc[nH]c4c3)c21 [VV, (Z)-N-[2,3-Dihydro-4-(6-indolyl)-3-[(3-methoxy-1H-pyrrol-2-yl)methylene]-2-oxo-1H-indol-5-yl]-2-thiopheneacetamide]
21 | < 0.15 | COC(=O)c1ccc(-c2c(NC(=O)Cc3cccs3)ccc3c2/C(=C/c2[nH]ccc2OC)C(=O)N3)cc1 [WW, (Z)-4-[2,3-Dihydro-3-[(3-methoxy-1H-pyrrol-2-yl)methylene]-2-oxo-5-[(2-thienylacetyl)amino]-1H-indol-4-yl]-benzoic Acid Methyl Ester]
22 | < 0.15 | COc1cc[nH]c1/C=C1\C(=O)Nc2ccc(NC(=O)Cc3cccs3)c(-c3ccc(C(=O)O)cc3)c21 [XX, (Z)-4-[2,3-Dihydro-3-[(3-methoxy-1H-pyrrol-2-yl)methylene]-2-oxo-5-[(2-thienylacetyl)amino]-1H-indol-4-yl]-benzoic acid]
